From patent publication US9138659B2, “Compositions, methods, and systems relating to controlled crystallization and/or nucleation of molecular species” (Massachusetts Institute of Technology, priority 2010, dated 2015)
Values after ≈ are worked out from the molar mass of the structure shown.

Key:
Type in all cases: physicochemical
[1] = Solubility of ASA and ACM
[2] = Isothermal titration calorimetry of ASA adsorption onto microgels; settings: 38/62 ethanol/water, 23° C
Protocol: The ASA-polymer interactions were further quantified with the solute adsorption enthalpy via Isothermal Titration calorimetry (ITC), which also helps to deepen the understanding of partitioning effect. […] The data are presented both as instantaneous enthalpies at a given concentration, ΔHASA-gel (top), and as cumulative enthalpies up to a certain concentration, ΔHASA-gel ^tot (bottom).
Isothermal titration calorimetry (ITC): ITC measurements were performed on a TA Instruments NanoITC calorimeter. All experiments were performed at 23° C. using injections of ΔV=10 μL of titrant, with a waiting time of 1000 sec in between injections and 25 injections per measurement. For all measurements, The differential heat input, q(t), was measured as a function of time t over all injections, followed by integration of q(t) over each individual injection to obtain the molar heat of injection, Q(T,P,c). The molar heat of injection can then be cumulatively added over all previous injections, yielding the total molar heat, Qtot(T,P,c). […]
where ΔHASA-gel is the molar enthalpy of interaction between ASA and the microgel particles, and ΔHdil^i is the molar enthalpy of dilution of component i (ASA or gel, respectively) in 38/62 (v/v) ethanol/water. […] (X) was used to subtract the measured dilution enthalpies from the initial measurements of Q(T,P,c) in order to obtain ΔHASA-gel. […]

[3] = Nucleation induction time of aspirin on crosslinked polymer plates (non-porous and porous); settings: for average induction time τ from linear fit ln(P)=−t/τ: bulk polymerization
Protocol: To further quantify the surface chemistry effect on nucleation kinetics, nucleation induction time distribution was measured with the API of interest. Nucleation induction time is an indicator of the surface nucleation activity because it can be shortened when the presence of a surface lowers the free energy barrier of nucleation. Due to the stochastic nature of nucleation events, a significant number of experiments were performed to obtain the probability distribution of nucleation induction time.
As an example of induction time measurements, polymer plates were prepared by UV polymerizing the mixture of a monomer and the crosslinker divinylbenzene held by Teflon holders. Subsequent drying under vacuum removed unreacted monomer molecules. Monomers used to synthesize polymer plates were 4-Acryloylmorpholine (AM), 4-Hydroxybutyl acrylate (HBA), 2-Carboxyethyl acrylate (CEA), and styrene (STY). AM, HBA, and CEA served as positive controls, whilst STY a negative control. Each polymer plate was inserted together with the Teflon holder vertically into the aspirin solution, and then the solution was quenched to initiate nucleation. The starting concentration and the nucleation temperature were chosen such that the supersaturation produced was high enough to give reasonably short induction time but low enough to suppress bulk nucleation. 48 vials of each polymer sample were tested simultaneously and the fraction of vials crystallized was recorded as a function of time to produce a plot of cumulative probability distribution of induction time, as shown in FIG. 4.
In FIG. 4: Cumulative probability distribution of nucleation induction time (a) and statistical analysis on the same data sets (b) obtained with polymers synthesized via bulk polymerization. Crystallization of aspirin was performed at supersaturation S=4.75. The linear regression in […] follows the formula ln(P)=−t/τ to obtain the average induction time τ. P is the probability for no crystallization event to occur within time t. […] The results of linear fitting are i) STY ln(P)=−t/243.9, R^2=0.987; ii) CEA ln(P)=−t/113.6, R^2=0.978; iii) HBA ln(P)=−t/38.2, R^2=0.995.
For example, by the PIPS method, the mixture of a monomer and the crosslinker divinylbenzene dissolved in ethanol was subjected to UV irradiation to initiate the polymerization. As the molecular weight of the polymer increases to a critical point, dynamic asymmetry between solvent molecules and the polymer lead to nucleation and growth of solvent-rich regions within the polymer matrix. Subsequent evaporation of the solvent during the vacuum drying leaves pores on the polymer films. One common feature shared by most porous surfaces is a raised edge surrounding the pore region, which may be a sign of eruptional behavior caused by fast solvent evaporation under vacuum. As determined by AFM, the pores found on polymer sample AM were around 100 nm in width and 4 nm in depth. Comparatively, polymer sample HBA carried pores about 50 nm in width and 5-8 nm in depth. The non-porous AM and HBA samples were synthesized by bulk polymerization method and used as a control and had relatively smooth surfaces despite a few impurities.

solubility ([1]; aqueous with cosolvent or surfactant or cyclodextrin, 38/62 (v/v) ethanol/water mixture at 25° C): 32 mg/mL (≈ 178 mM)
solubility in water ([1]; water at 3° C): essentially insoluble
enthalpy of adsorption of ASA at infinite dilution ΔHASA-gel^∞ ([2]; PEG400DA microgels): -9.8 kcal/mol
enthalpy of adsorption of ASA at infinite dilution ΔHASA-gel^∞ ([2]; PEG400DA-co-AM microgels): -12.3 kcal/mol
average induction time τ from linear fit ln(P)=−t/τ ([3]; CEA polymer, S=4.75, FIG. 4, in h): 113.6
average induction time τ from linear fit ln(P)=−t/τ ([3]; HBA polymer, S=4.75, FIG. 4): 38.2 h
average induction time τ from linear fit ln(P)=−t/τ ([3]; STY polymer, S=4.75, FIG. 4, in h): 243.9
Average induction time τ ([3]; non-porous AM polymer, S = 4.75): 38.2 h
Average induction time τ ([3]; non-porous HBA polymer, S = 4.75): 243.9 h
Average induction time τ ([3]; porous AM polymer, S = 4.2): 8.8 h
Average induction time τ ([3]; porous HBA polymer, S = 4.2): 54.6 h
SMILES: CC(=O)Oc1ccccc1C(=O)O [aspirin]
